The experiment deals with HM74 (Homo sapiens, UniProt P49019). To be noted: membranes from HM74-expressing HEK293T cells, co-expressed with Go1α.
Chain of HM74 (P49019 whole entry): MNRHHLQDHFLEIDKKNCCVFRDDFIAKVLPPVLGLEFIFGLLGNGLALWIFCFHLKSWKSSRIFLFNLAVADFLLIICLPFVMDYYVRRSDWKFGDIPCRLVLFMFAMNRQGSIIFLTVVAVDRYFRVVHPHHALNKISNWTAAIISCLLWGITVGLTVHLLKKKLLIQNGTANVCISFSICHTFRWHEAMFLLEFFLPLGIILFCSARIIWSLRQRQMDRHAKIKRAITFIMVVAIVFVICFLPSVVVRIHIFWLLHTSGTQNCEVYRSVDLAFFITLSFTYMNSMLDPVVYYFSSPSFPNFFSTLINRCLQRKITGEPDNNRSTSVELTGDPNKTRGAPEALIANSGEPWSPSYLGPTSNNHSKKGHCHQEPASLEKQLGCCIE

Experimental: HEK293T cells (HEK293 cells stably expressing the SV40 large T-antigen) were maintained in DMEM containing 10% (v/v) foetal calf serum and 2 mM glutamine. Cells were seeded in 60 mm culture dishes and grown to 60-80% confluency (18-24 h) prior to transfection with pCDNA3 containing the relevant DNA species using Lipofectamine reagent. For transfection, 3 μg of DNA was mixed with 10 μl of Lipofectamine in 0.2 ml of Opti-MEM (Life Technologies Inc.) and was incubated at room temperature for 30 min prior to the addition of 1.6 ml of Opti-MEM. Cells were exposed to the Lipofectamine/DNA mixture for 5 h and 2 ml of 20% (v/v) newborn calf serum in DMEM was then added. Cells were harvested 48-72 h after transfection.
Plasma membrane-containing P2 particulate fractions were prepared from cell pastes frozen at −80° C. after harvest. All procedures were carried out at 4° C. Cell pellets were resuspended in 1 ml of 10 mM Tris-HCl and 0.1 mM EDTA, pH 7.5 (buffer A) and by homogenisation for 20 s with a polytron homogeniser followed by passage (5 times) through a 25-guage needle. Cell lysates were centrifuged at 1,000 g for 10 min in a microcentrige to pellet the nuclei and unbroken cells and P2 particulate fractions were recovered by microcentrifugation at 16,000 g for 30 min. P2 particulate fractions were resuspended in buffer A and stored at −80° C. until required.

On to `O=C(O)CNC(=O)c1cccnc1` [nicotinuric acid], for which the “stimulation of [35S]GTPγS binding” value is given as “not found to alter basal”.

Source of the values: patent publication US20040254224A1, “Medicaments” (priority 2001, published 2004).
